Measurements as given in patent US11103488B2, “Methods of treating autoimmune, respiratory and inflammatory disorders by inhalation of roflumilast N-oxide” (Incozen Therapeutics Pvt. Ltd., priority 2013, dated 2021).
Like-named read-outs stand apart in the source and are kept apart here.

Tests used:
[1] = Lung microsome metabolic stability, dog; assay type: in vitro ADME; conditions: dog lung microsomes, 1 μM test item, 60 minutes, NADPH
Description: (§1) Metabolic stability studies were conducted using rat, dog and human lung microsomes. The protocol for the studies with rat, dog, and human lung microsomes (from Xenotech, USA) is provided below.
(§2) 0.4 mg protein was preincubated with 2 mM NADPH (cofactor) in phosphate buffer (pH˜7.4) for 15 minutes at […] and then added with 1 μM test item and incubated further for 60 minutes in triplicate. The reaction mixture was terminated with methanol containing an internal standard and centrifuged further to analyze the test item remaining in the supernatant by LC-MS/MS. The percent parent compound remaining was calculated in comparison with similar samples terminated at 0 minutes.

[2] = Lung microsome metabolic stability, human; assay type: in vitro ADME; conditions: 1 μM test item, 60 minutes, NADPH
Description: as §1, §2

[3] = Pulmonary kinetics by intratracheal route, single dose; assay type: in vivo, Wistar rats; conditions: single dose 1 mg/kg IT
Description: Male and female Wistar rats were weighed and randomized for groups for various time points. Roflumilast N-oxide was prepared as a suspension in a suitable vehicle for intratracheal administration. For intratracheal dosing, animals were anesthetized with ketamine (50 mg/kg; i.p.) and roflumilast N-oxide was administered via an Intratracheal Microsprayer® Aerosolizer for Rat with a 0.5 ml glass syringe (Model IA-1B-R-GL500) (Penn Century, US). A volume level of 0.5 ml/kg was administered into the airway system of the rat at a dose of 1.0 mg/kg for the single dose and multiple dose study. The animals were kept under normal regular diet conditions and rat chew diet was provided ad libitum throughout the study. The blood and lung samples (all collections each of 150 μl from each animal) were collected according to the sampling schedule. Blood samples were collected from orbital sinus into the microfuge tubes containing dipotassium EDTA as an anticoagulant. Blood samples were centrifuged immediately with a speed of 1000 g for 10 minutes at 4° C. and separated plasma samples were frozen at below −80° C. and stored until analysis. The plasma and lung concentrations of roflumilast N-oxide in all samples were analyzed by LC-MS/MS (using X-Calibur 2.0.7 software) as per the established method. The samples below the lower limit of quantification (LOQ) were mentioned as (BLQ) below level of quantification in raw data and the results were tabulated accordingly. Pharmacokinetic parameters Cmax, AUC0-t, AUC0-∞, Tmax, t1/2, Kel, VZ, and CLZ were estimated for the above concentrations using WinNonlin (Phoenix 6.1 software) and the results were tabulated. Pharmacokinetic parameters in plasma were calculated from concentration data as ng/ml. Cmax and AUC values were reported in terms of ng/ml and ng·h/ml, respectively.
Pharmacokinetic parameters in the lungs were calculated from concentration data as ng/g. Cmax and AUC values were reported in terms of ng/g and ng·h/g, respectively. The lung to plasma concentration ratio was calculated by assuming equal to 1 the plasma density. The time-mean plasma concentration plots for roflumilast N-oxide were done using Graph pad Prism 5.02 software.

[4] = system: neutrophil infiltration (LPS-induced neutrophilia in BALF); assay: Lipopolysaccharide (LPS) induced pulmonary neutrophilia; assay type: in vivo, female Sprague-Dawley rat; conditions: for ED50: Rattus norvegicus, Neutrophil, inhaled or nasal; for Percent inhibition in neutrophil infiltration: intratracheal dry powder, 30 minutes before LPS
Description: Roflumilast was prepared as a suspension in a suitable vehicle for oral administration. For intratracheal administration, roflumilast or roflumilast N-oxide was prepared as a dry powder mixture and administered by using a dry powder Insufflator (Penn-Century, USA) Animals were anaesthetized with ketamine and LPS solution was administered intratracheally one hour after roflumilast (at a dose of 0.3, 1, 3, and 10 mg/kg orally), or 30 minutes after roflumilast (at a dose of 10, 30 and 100 μg/kg i.t) or roflumilast N-oxide administration (at a dose of 10, 30 and 100 μg/kg, i.t). 6 hours after LPS instillation, animals were exsanguinated under anaesthesia, and then trachea were cannulated and the lungs were lavaged with 5-ml aliquots of heparinised PBS (1 unit/ml) four times through tracheal cannula (total volume 20 ml). BAL (bronchoalveolar lavage) fluid was stored at 2-8° C. until assayed for total cell and differential leukocyte count. Bronchioalveolar fluid was centrifuged (500×g for 10 minutes) and the resulting cell pellet was resuspended in 0.5 ml of heparinized saline. The total number of white blood cells were determined in BAL fluid using a blood cell counter and were adjusted to 1×10^6 cell/ml. Differential cell count was calculated manually. One hundred microliters of the cell suspension was centrifuged using cytospin 3 to prepare a cell smear. The cell smear was stained with a blood staining solution for differentiation and slides were microscopically observed to identify eosinophil according to their morphological characteristics. The number of each cell type among 300 white blood cells in the cell smear was determined and expressed as a percentage. The total number of neutrophils in each BAL fluid was calculated.
Roflumilast and roflumilast N-oxide were administered intratracheally (i.t) at doses of 100, 30, and 10 μg/kg as 1:200; 1:500; and 1:1000 drug:lactose blends, respectively.

[5] = 7-day repeat dose safety study; assay type: in vivo, Wistar Rats
Description: (§3) In order to determine the safety of roflumilast N-oxide by inhalation compared to roflumilast by oral administration, a 7- and 14-day repeat dose safety study was conducted according to the protocol given in Table 5 below.

[6] = 14-day repeat dose safety study; assay type: in vivo, Wistar Rats; conditions: Intratracheal, 1000 ug/kg/day, 14 days
Description: as §3

O=C(Nc1c(Cl)c[n+]([O-])cc1Cl)c1ccc(OC(F)F)c(OCC2CC2)c1 [Roflumilast N-oxide]
Percent Parent Compound Remaining, Dog [1]: 98.3%
Percent Parent Compound Remaining, Human Non Smoker ([2]; human non smoker lung microsomes): 91.5%
Percent Parent Compound Remaining, Human Smoker ([2]; human smoker lung microsomes): 99.3%
Tmax ([3]; both sexes, Wistar, rat, inhaled or intranasal, lung, read-out: Tmax, Lung, N-Oxide): 0.25 h
half-life ([3]; both sexes, Wistar, rat, inhaled or intranasal, lung, read-out: t1/2, Lung, N-Oxide (converted)): 2.54 h
AUC(0-t) ([3]; both sexes, Wistar, rat, inhaled or intranasal, plasma, read-out: AUC0-t, Plasma, N-Oxide): 4160 ng·h/mL
Cmax ([3]; both sexes, Wistar, rat, inhaled or intranasal, plasma, read-out: Cmax, Plasma, N-Oxide): 530 ng/mL
Tmax ([3]; both sexes, Wistar, rat, inhaled or intranasal, plasma, read-out: Tmax, Plasma, N-Oxide): 0.25 h
half-life ([3]; both sexes, Wistar, rat, inhaled or intranasal, plasma, read-out: t1/2, Plasma, N-Oxide (converted)): 5.43 h
AUC0-inf, Lung, N-Oxide ([3]; lung): 47960 ng·h/g
AUC0-t, Lung, N-Oxide ([3]; lung): 47880 ng·h/g
Cmax, Lung, N-Oxide ([3]; lung): 26350 ng/g
ED50 ([4]; Intratracheal (Table 5), read-out: ED50 in Lipopolysaccharide induced pulmonary neutrophilia in female Sprague-Dawley rat model): 0.027 mg/kg
ED50 ([4]; intratracheal administration, read-out: 50% inhibition (ED50) dose, neutrophil infiltration): 0.027 mg/kg
Percent inhibition in neutrophil infiltration ([4]; 10 μg/kg): 37.52%
Percent inhibition in neutrophil infiltration ([4]; 30 μg/kg): 49.66%
Percent inhibition in neutrophil infiltration ([4]; 100 μg/kg): 69.48%
MORTALITY ([5]; Intratracheal, 1000 ug/kg/day, 7 days): No Mortality
Therapeutic window (safe dose relative to ED50) ([5]; intratracheal 1000 μg/kg versus ED50 of 27 μg/kg): more than 37 fold
Overall safety in repeat dose study ([5]; intratracheal administration, 1000 μg/kg): found to be safe
MORTALITY [6]: No Mortality
